What is called viability is a read-out of living cells in per cent, often relative to untreated cells. Low readings indicate more harm to the cells, high ones less harm to the cells.

The values below come from patent publication US5932717A, “Methods of obtaining DNA-RNA hybrids from sturgeon milt” (priority 1994, dated 1999).

Data set [1] has as its system MT-4 cell. As to conditions: MT-4, 5 ug/ml.
Experimental: (§1) The cells.--A continuous lymphoblast line of MT-4 cells was used in the study. The cells were propagated in a concentration of 0.2×10^6 cells/ml in RPMI-1640 medium with 15% fetal calf serum, 300 μg/ml L-glutamine and 100 μg/ml gentamycine. The cells were cultivated in suspension in 24-well plates of NUNCLON Company.
(§2) The viability of the cells was determined by staining with 0.4% trypan blue.
(§3) Cytotoxicity of the preparations was determined in 24-well plastic plates. Each well of the panel was filled with 1 ml of cell suspension in a concentration 0.2×10^6 cells/ml after which to different wells various doses of chemopreparations were added: 1600, 1000, and 400 μg/ml. After treatment of the cells with the chemopreparations the panels with the cells were placed into a thermostat and incubated at 37° C. in an atmosphere of 5% CO2 and 98% humidity for 3-5 days. At the end of this term the results were read by the number of live and dead cells in the individual wells of the plate.
Data set [2] can be described thus: in vitro. As to conditions: human, mt-4 cells.
Experimental: as §1, §2, §3

In the case of `Cc1cn([C@H]2C[C@H](N=[N+]=[N-])[C@@H](CO)O2)c(=O)[nH]c1=O` [Azidothymidine, azidothymidine], the “Cell concentration per ml × 10^6” value in data set [1] (cell control 0.56) worked out at 0.16 per ml × 10^6. The same molecule came in with a Proliferation index in data set [1] (cell control 2.80) of 1.0. In addition, the viability in data set [2] was 17.5%.
